# Where two headings read alike, the source gives them in different places.
# Legend:
# [1] = Mouse microsomal clearance; type: in vitro ADME; details: 0.5 mg/mL mouse microsomes
# Description: Compounds were solubilized (10 mM in DMSO). 1 μM of BGAz compound was incubated with 0.5 mg/mL mouse microsomes in the presence or absence of the Phase 1 cofactor NADPH (1 mM) at 37 °C for 0, 5, 10, 15, and 30 min. The disappearance of the BGAz compound was assessed by LC-MS/MS. All experiments were performed with two replicates per compound and were validated by the inclusion of up to three species-specific control compounds. Data output consists of mean intrinsic clearance (CLint) and half-life (t1/2) measurements.
# [2] = molecular target: hERG (Homo sapiens, UniProt Q12809); assay: cell-based; type: cell-based; details: for IC50: CHO cells expressing hERG, eight-point curve
# Description: Compounds were solubilized to 30 mM in DMSO before dilution in PBS to […]. […] Eight-point concentration–response curves were generated using 3.16-fold serial dilutions from the top test concentration. Electrophysiological recordings were made from a Chinese Hamster Ovary cell line stably expressing the full length hERG channel. Single cell ionic currents were measured in the perforated patch clamp configuration (100 μg mL^–1 amphotericin) at room temperature (21–23 °C) using an IonWorks Quattro instrument (Molecular Devices). The internal solution contained (mM) 140 KCl, 1 MgCl2, 1 EGTA, and 20 HEPES and was buffered to pH 7.3. The external solution [PBS contained (mM): 138 NaCl, 2.7 KCl, 0.9 CaCl2, 0.5 MgCl2, 8 Na2HPO4, and 1.5 KH2PO4 buffered to pH 7.4]. Cells were clamped at a holding potential of −70 mV for 30 s and then stepped to +40 mV for one second. This was followed by a hyperpolarising step of 1 s to −30 mV to evoke the hERG tail current. Currents were measured from the tail step and referenced to the holding current. Compounds were then incubated for 3–4 min prior to a second measurement of the hERG signal using an identical pulsetrain.
# [3] = system: M. tb H37Ra::pTYOK; type: cell-based, Mycobacterium tuberculosis; details: autoluminescent strain, >50% RLU inhibition on day 3
# [4] = system: M. bovis BCG; assay: microbe, parasite or virus in culture; type: cell-based; details: Mycobacterium tuberculosis variant bovis BCG, read-out: BCG MBC
# [5] = system: M. bovis BCG; assay: microbe, parasite or virus in culture; type: cell-based, Mycobacterium bovis BCG; details: for MIC99 / MIC50: Mycobacterium tuberculosis variant bovis BCG, BCG; for MIC50: read-out: MIC50 BCG; for increase in activity against M. bovis BCG compared to BGAz-001: fold, from MIC99
# [6] = system: C. glutamicum pks13; assay: MIC, resazurin assay, C. glutamicum pks13 deletion mutant; type: cell-based, Corynebacterium glutamicum; details: modified Gompertz function
# [7] = system: M. tuberculosis H37Rv; assay: MIC, resazurin microtiter assay (REMA), H37Rv; type: cell-based; details: Mycobacterium tuberculosis, drug-sensitive reference strain, read-out: M. tb H37Rv MIC99
# Description: The previously described resazurin microtiter assay (REMA) plate method was used.[73],[74] Compounds were two-fold serially diluted in CAMR Mycobacterium Medium MOD2 (CMM MOD2).[75] Individual wells, in a 96-well plate, were inoculated with 1 × 10^6 CFU mL^–1 bacilli and incubated for 7 days at 37 °C with agitation (200 rpm). Following this, resazurin solution was added to wells (0.02% (w/v) in PBS pH 7.4, supplemented with 5% Tween 80).[76] The 96-well plates were incubated at room temperature for 6 h. The OD570nm of each well was recorded using a Tecan Sunrise plate reader. The minimum inhibitory concentration (MIC99) was calculated using a modified Gompertz function.[77] The optical density measurements for each drug concentration were compared to vehicle control to determine the percentage reduction in bacterial optical density.
# [8] = system: M. tuberculosis 1192/015; assay: microbe, parasite or virus in culture; type: cell-based; details: Mycobacterium tuberculosis, 1192/015, read-out: M. tb 1192/015 MIC99
# [9] = HepG2 mitochondrial dysfunction (Glu/Gal cytotoxicity, MTT); type: cell-based; details: human, HepG2 cells, 24 h, MTT
# Description: Compounds were solubilized to 30 mM in DMSO. The BGAz compounds were added to the HepG2 cell model in a 96-well microplate in half log dilutions from 100–0.0003 μM (final DMSO concentration 0.3%) using both glucose (DMEM consisting of 25 mM glucose) and galactose (DMEM consisting of 10 mM galactose) media. The compounds were incubated with the cell line for 24 h at 37 °C in a humidified CO2 tissue culture incubator, followed by cell viability staining with MTT (3-(4,5-dimethylthiazol-2-yl)-2.5-diphenyltetrazolium bromide) conversion to the Formazan product, determined by absorbance measurement. The cell viability IC50 was determined in HepG2 glucose and metabolism-modified HepG2 galactose, and the fold change difference between the Glu/Gal IC50 was determined. All experiments were performed in duplicate with the mitochondrial toxicity controls rotenone and Antimycin A and the cytotoxin control tamoxifen.
# [10] = system: BCG pVV16-mmpL3; type: cell-based, Mycobacterium bovis BCG
# [11] = galactose medium, read-out: HepG2 Cytotoxicity IC50, Gal
# [12] = glucose medium, read-out: HepG2 Cytotoxicity IC50, Glu
# Sequence of hERG (Q12809 whole entry): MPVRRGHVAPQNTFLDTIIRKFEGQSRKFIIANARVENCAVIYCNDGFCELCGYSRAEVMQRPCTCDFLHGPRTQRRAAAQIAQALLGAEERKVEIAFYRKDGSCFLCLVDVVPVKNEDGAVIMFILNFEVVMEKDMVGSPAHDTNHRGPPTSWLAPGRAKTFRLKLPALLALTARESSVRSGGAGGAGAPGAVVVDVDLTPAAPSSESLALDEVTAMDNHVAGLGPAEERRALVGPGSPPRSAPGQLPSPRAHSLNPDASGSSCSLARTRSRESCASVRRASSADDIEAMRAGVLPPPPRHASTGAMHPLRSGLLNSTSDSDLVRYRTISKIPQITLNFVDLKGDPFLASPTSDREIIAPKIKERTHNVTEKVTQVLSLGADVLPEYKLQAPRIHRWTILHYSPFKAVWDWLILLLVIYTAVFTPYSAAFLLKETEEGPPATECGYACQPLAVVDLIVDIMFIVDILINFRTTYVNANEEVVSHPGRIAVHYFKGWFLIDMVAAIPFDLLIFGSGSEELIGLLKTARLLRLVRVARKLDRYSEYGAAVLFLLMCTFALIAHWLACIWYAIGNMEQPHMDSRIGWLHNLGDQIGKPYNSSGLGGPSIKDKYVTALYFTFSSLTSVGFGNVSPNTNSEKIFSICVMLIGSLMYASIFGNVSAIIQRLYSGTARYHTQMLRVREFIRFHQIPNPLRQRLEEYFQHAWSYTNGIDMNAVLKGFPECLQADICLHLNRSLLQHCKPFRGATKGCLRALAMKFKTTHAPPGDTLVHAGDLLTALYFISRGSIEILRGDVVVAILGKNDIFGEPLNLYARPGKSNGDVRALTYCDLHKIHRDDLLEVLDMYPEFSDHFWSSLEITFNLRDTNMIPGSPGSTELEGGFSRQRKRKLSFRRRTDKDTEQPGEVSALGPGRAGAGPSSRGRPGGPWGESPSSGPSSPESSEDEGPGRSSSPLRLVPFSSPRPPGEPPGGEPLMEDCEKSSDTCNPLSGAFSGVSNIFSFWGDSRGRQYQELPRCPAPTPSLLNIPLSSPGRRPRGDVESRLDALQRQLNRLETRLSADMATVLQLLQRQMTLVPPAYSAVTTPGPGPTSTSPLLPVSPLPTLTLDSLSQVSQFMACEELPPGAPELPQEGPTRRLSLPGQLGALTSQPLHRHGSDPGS
Compound,microsomal CLint at 1 μM [1],IC50 [2],M. tb H37Ra::pTY OK MIClux50 [3],MBC [4],MIC99 ([5]; read-out: BCG MIC99),MIC50 [5],MIC99 ([5]; read-out: MIC99 BCG),increase in activity against M. bovis BCG compared to BGAz-001 [5],C. glutamicum pks13 MIC [6],MIC99 [7],MIC99 [8],"IC50 at 24 h [9, 11]","IC50 at 24 h [9, 12]",BCG pVV16-mmpL3 MIC [10],"IC50 ([2]; human, CHO cells stably expressing hERG, pH 7.4)","inhibition at 167 µM ([2]; human, pH 7.4, 167 μM, read-out: hERG inhibition at top test concentration)"
CNCC1CC(c2ccc(OC(F)(F)F)cc2)N1Cc1ccccc1OC(F)(F)F (stereo not drawn) [BGAz-005],36 µL/min/mg,12.7 µM,4.5 μM,12 to 25 µM,21 µM,20 µM,21 µM,approximately three-fold increase,10,7.2 µM,23.2 µM,23 µM,21 µM,,,
Brc1cc(Br)cc(C2CC(CN3CCCC3)N2Cc2ccccc2Br)c1 (stereo not drawn) [BGAz-004],192 µL/min/mg,25 µM,7.03 μM,12 to 25 µM,14 µM,15 µM,14 µM,approximately three- to four-fold increase,10,3.3 µM,15.4 µM,> 100 µM,> 100 µM,40 µM,,
FC(F)(F)Oc1ccc(C2CC(CN3CCCC3)N2Cc2ccccc2OC(F)(F)F)cc1 (stereo not drawn) [BGAz-002],166 µL/min/mg,,9.2 μM,12 to 25 µM,15 µM,14 µM,15 µM,approximately three- to four-fold increase,50,6.2 µM,37.8 µM,65 µM,38 µM,25 µM,> 167 µM,< 50%
